Results from patent US20070249725A1, “Pharmaceutical formulations of sympathetic antagonist for the treatment of chronic muscle pain” (priority 2006, published 2007).
Counter-ions that a name gives are not always drawn.

System: trigger point
Experiment: Efficacy and dosage study for intramuscular injection of phenoxybenzamine hydrochloride: subject-reported percent improvement from baseline
Assay type: in vivo, human
Procedure: A total of 326 male and female subjects, approximately 15 to 85 years old with pain of 4-72 month duration were treated with various doses of phenoxybenzamine. If a potential subject had pain that was clearly muscular and clearly not due to arthritis, nerve root compression or other extramuscular cause, the subject was considered a candidate for phenoxybenzamine hydrochloride injection. Trigger points were identified by palpation. A monopolar EMG needle was then inserted into the trigger point. Another monopolar EMG needle was inserted into a nearby nontender fibers of the same muscle. […] The treatment was repeated in up to 10-12 trigger points per treatment session. Subjects could return for up to 6 treatment sessions, depending on the extent of their pain. The initial treatment was with a dose of 25 mg of phenoxybenzamine hydrochloride in an injection volume of 2 ml. […] For 318 subjects, data were available for analysis for the doses of phenoxybenzamine hydrochloride used, efficacy and incidence of serious adverse events.
Subjects were asked to quantify, in terms of percent improvement from baseline, how they felt after treatment.

CC(COc1ccccc1)N(CCCl)Cc1ccccc1 (stereo not shown) [Phenoxybenzamine Hydrochloride, phenoxybenzamine hydrochloride]
Mean % improvement (3 mg dose, Two month, 178 subjects (Interim data)): 54.9%
% of Subjects with Greater than 25% Improvement (10 mg dose, Four month, 84 subjects): 63%
% of Subjects with Greater than 25% Improvement (10 mg dose, One month, 84 subjects): 52%
% of Subjects with Greater than 25% Improvement (10 mg dose, Three month, 84 subjects): 66%
% of Subjects with Greater than 25% Improvement (10 mg dose, Two month, 84 subjects): 68%
% of Subjects with Greater than 25% Improvement (25 mg dose, Four month, 16 subjects): 53%
% of Subjects with Greater than 25% Improvement (25 mg dose, One month, 16 subjects): 57%
% of Subjects with Greater than 25% Improvement (25 mg dose, One week, 16 subjects): 40%
% of Subjects with Greater than 25% Improvement (25 mg dose, Two month, 16 subjects): 66%
% of Subjects with Greater than 25% Improvement (10-12.5 mg dose, Four month, 8 subjects): 100%
% of Subjects with Greater than 25% Improvement (10-12.5 mg dose, One month, 8 subjects): 50%
% of Subjects with Greater than 25% Improvement (10-12.5 mg dose, Two month, 8 subjects): 83%
subjects reported no improvement in pain (Example 1, after treatment): About 15%
